We go through twelve compounds from patent US12398101B2, “Herbicidal 2-azaspiro[3-5]nonane compounds” (SYNGENTA CROP PROTECTION AG, priority 2018, dated 2025).

Common to all, as to assay type: in vivo
What all share (conditions): 250 g/h, evaluated after 13 days

The test system of test [1] is Avena fatua (AVEFA). Put plainly: Glasshouse herbicide test, pre-emergence application. The method, then:
(§1) Seeds of a variety of test species are sown in standard soil in pots (Lolium perenne (LOLPE), Setaria faberi (SETFA), Echinochloa crus-galli (ECHCG), Avena fatua (AVEFA)). After cultivation for one day (pre-emergence) or after 8 days cultivation (post-emergence) under controlled conditions in a glasshouse (at 24/16° C., day/night; 14 hours light; 65% humidity), the plants are sprayed with an aqueous spray solution derived from the formulation of the technical active ingredient in acetone/water (50:50) solution containing 0.5% Tween 20 (polyoxyethelyene sorbitan monolaurate, CAS RN 9005-64-5). Compounds are applied at 250 g/h. The test plants are then grown in a glasshouse under controlled conditions in a glasshouse (at 24/16° C., day/night; 14 hours light; 65% humidity) and watered twice daily. After 13 days for pre and post-emergence, the test is evaluated for the percentage damage caused to the plant. The biological activities are shown in the following table on a five point scale (5=80-100%; 4=60-79%; 3=40-59%; 2=20-39%; 1=0-19%).

The subject of test [2] is Echinochloa crus-galli (ECHCG). The test is described as above. How it is done: as §1
Test [3] concerns Lolium perenne (LOLPE). The description is as above. The method, then:
as §1

Test [4] deals with Setaria faberi (SETFA). The test is described as above. How it is done:
as §1

Test [5] relates to Avena fatua (AVEFA). Description: Glasshouse herbicide test, post-emergence application. The method, then:
as §1

Test [6] deals with Echinochloa crus-galli (ECHCG). The test is described as above. The method, then:
as §1

Test [7] deals with Lolium perenne (LOLPE). The description is as above. The method, then: as §1
Test [8] concerns Setaria faberi (SETFA). The description is as above. How it is done:
as §1

Each structure is given as a SMILES string.

On to `CC#Cc1cc(Cl)c(C2C(=O)CC3(CC2=O)CN(C(=O)C2CC2)C3)c(OC)c1` [Compound 1.196], for which the “percentage damage caused to the plant, five point scale, AVEFA” value (“percentage damage caused … AVEFA” below) with Avena fatua (AVEFA) [1] and with Avena fatua (AVEFA) [5] was 5 (5=80-100%) throughout. For the same compound, the “percentage damage caused to the plant, five point scale, ECHCG” value (“percentage damage caused … ECHCG” for short) in test [2] and in test [6] was 5 (5=80-100%) each time. In addition, the “percentage damage caused to the plant, five point scale, LOLPE” value (from here on “percentage damage caused … LOLPE”) in the test on Lolium perenne (LOLPE) [3] and in the test on Lolium perenne (LOLPE) [7] was 5 (5=80-100%) in each case. Also, the “percentage damage caused to the plant, five point scale, SETFA” value (from here on “percentage damage caused … SETFA”) in the test with Setaria faberi (SETFA) [4] and with Setaria faberi (SETFA) [8] was 5 (5=80-100%) in each case.
Consider `CC#Cc1cc(C)c(C2C(=O)CC3(CC2=O)CN(C(=O)NC(C)(C)C)C3)c(OC)c1` [Compound 1.018], for which the “percentage damage caused … AVEFA” value in the test with Avena fatua (AVEFA) [1] and in the test on Avena fatua (AVEFA) [5] was 5 (5=80-100%) throughout. Besides, the “percentage damage caused … ECHCG” value in test [2] and in test [6] was 5 (5=80-100%) each time. Also, the “percentage damage caused … LOLPE” value in the test with Lolium perenne (LOLPE) [3] and with Lolium perenne (LOLPE) [7] was 5 (5=80-100%) in each case. Also, the “percentage damage caused … SETFA” value in the test on Setaria faberi (SETFA) [4] and in the test on Setaria faberi (SETFA) [8] was 5 (5=80-100%) each time.
As for `CC#Cc1cc(Cl)c(C2C(=O)CC3(CC2=O)CN(C(C)=O)C3)c(OC)c1` [Compound 1.195], the “percentage damage caused … AVEFA” value in the test with Avena fatua (AVEFA) [1] and with Avena fatua (AVEFA) [5] was 5 (5=80-100%) each time. In addition, the “percentage damage caused … ECHCG” value in test [2] and in test [6] was 5 (5=80-100%) each time. In addition, the “percentage damage caused … LOLPE” value in the test with Lolium perenne (LOLPE) [3] and with Lolium perenne (LOLPE) [7] was 5 (5=80-100%) in each case. The “percentage damage caused … SETFA” value in the test on Setaria faberi (SETFA) [4] and in the test on Setaria faberi (SETFA) [8] was 5 (5=80-100%) throughout.
As for `COc1cc(-c2ccc(F)cc2)cc(C)c1C1C(=O)CC2(CC1=O)CN(C(C)=O)C2` [Compound 1.203], the “percentage damage caused … AVEFA” value in the test with Avena fatua (AVEFA) [1] and with Avena fatua (AVEFA) [5] was 5 (5=80-100%) throughout. The “percentage damage caused … ECHCG” value in test [2] and in test [6] was 5 (5=80-100%) each time. In addition, the “percentage damage caused … LOLPE” value in the test on Lolium perenne (LOLPE) [3] was 4 (4=60-79%); with Lolium perenne (LOLPE) [7] it was 5 (5=80-100%). The “percentage damage caused … SETFA” value in the test on Setaria faberi (SETFA) [4] and in the test with Setaria faberi (SETFA) [8] was 5 (5=80-100%) in each case.
`CC#Cc1cc(Cl)c(C2C(=O)CC3(CC2=O)CN(C(=O)c2ccccc2)C3)c(OC)c1` [Compound 1.201]: the “percentage damage caused … AVEFA” value with Avena fatua (AVEFA) [1] and with Avena fatua (AVEFA) [5] was 5 (5=80-100%) each time. Besides, the “percentage damage caused … ECHCG” value in test [2] and in test [6] was 5 (5=80-100%) throughout. For the same compound, the “percentage damage caused … LOLPE” value with Lolium perenne (LOLPE) [3] and in the test with Lolium perenne (LOLPE) [7] was 5 (5=80-100%) each time. The “percentage damage caused … SETFA” value with Setaria faberi (SETFA) [4] and with Setaria faberi (SETFA) [8] was 5 (5=80-100%) throughout.
Take `CC#Cc1cc(C)c(C2C(=O)CC3(CC2=O)CN(C(=O)C2CC2)C3)c(OC)c1` [Compound 1.020]: the “percentage damage caused … AVEFA” value in the test on Avena fatua (AVEFA) [1] and in the test on Avena fatua (AVEFA) [5] was 5 (5=80-100%) each time. Further, the “percentage damage caused … ECHCG” value in test [2] and in test [6] was 5 (5=80-100%) throughout. In addition, the “percentage damage caused … LOLPE” value in the test with Lolium perenne (LOLPE) [3] and in the test with Lolium perenne (LOLPE) [7] was 5 (5=80-100%) throughout. In addition, the “percentage damage caused … SETFA” value in the test on Setaria faberi (SETFA) [4] and in the test with Setaria faberi (SETFA) [8] was 5 (5=80-100%) throughout.
`CC#Cc1cc(C)c(C2C(=O)CC3(CC2=O)CN(C(=O)C(F)F)C3)c(OC)c1` [Compound 1.024]: the “percentage damage caused … AVEFA” value in the test on Avena fatua (AVEFA) [1] and in the test with Avena fatua (AVEFA) [5] was 5 (5=80-100%) each time. Also, the “percentage damage caused … ECHCG” value in test [2] and in test [6] was 5 (5=80-100%) in each case. For the same compound, the “percentage damage caused … LOLPE” value with Lolium perenne (LOLPE) [3] and in the test with Lolium perenne (LOLPE) [7] was 5 (5=80-100%) in each case. Also, the “percentage damage caused … SETFA” value in the test with Setaria faberi (SETFA) [4] and in the test on Setaria faberi (SETFA) [8] was 5 (5=80-100%) each time.
Take `CC#Cc1cc(C)c(C2=C(OC(=O)OC)CC3(CC2=O)CN(C(C)=O)C3)c(C)c1` [Compound 2.001, 2-acetyl-7-(2,6-dimethyl-4-prop-1-ynyl-phenyl)-6-oxo-2-azaspiro[3.5]non-7-en-8-yl] methyl carbonate]: the “percentage damage caused … AVEFA” value with Avena fatua (AVEFA) [1] and in the test on Avena fatua (AVEFA) [5] was 5 (5=80-100%) in each case. Also, the “percentage damage caused … ECHCG” value in test [2] and in test [6] was 5 (5=80-100%) each time. Besides, the “percentage damage caused … LOLPE” value with Lolium perenne (LOLPE) [3] and with Lolium perenne (LOLPE) [7] was 5 (5=80-100%) in each case. Besides, the “percentage damage caused … SETFA” value in the test with Setaria faberi (SETFA) [4] and with Setaria faberi (SETFA) [8] was 5 (5=80-100%) throughout.
As to `CC#Cc1cc(C)c(C2C(=O)CC3(CC2=O)CN(C(=O)COC)C3)c(C)c1` [Compound 1.005], the “percentage damage caused … AVEFA” value in the test on Avena fatua (AVEFA) [1] and in the test with Avena fatua (AVEFA) [5] was 5 (5=80-100%) in each case. In addition, the “percentage damage caused … ECHCG” value in test [2] and in test [6] was 5 (5=80-100%) in each case. For the same compound, the “percentage damage caused … LOLPE” value with Lolium perenne (LOLPE) [3] and in the test with Lolium perenne (LOLPE) [7] was 5 (5=80-100%) each time. The “percentage damage caused … SETFA” value in the test on Setaria faberi (SETFA) [4] and in the test with Setaria faberi (SETFA) [8] was 5 (5=80-100%) each time.
In the case of `CC#Cc1cc(C)c(C2C(=O)CC3(CC2=O)CN(C(=O)NC(=O)c2ccccn2)C3)c(C)c1` [Compound 1.011], the “percentage damage caused … AVEFA” value in the test on Avena fatua (AVEFA) [1] is on record as 1 (1=0-19%); in the test on Avena fatua (AVEFA) [5], 3 (3=40-59%). The “percentage damage caused … ECHCG” value in test [2] is listed as 2 (2=20-39%); in test [6] it was 3 (3=40-59%). The “percentage damage caused … LOLPE” value is 2 (2=20-39%) in the test with Lolium perenne (LOLPE) [3] and 3 (3=40-59%) in the test with Lolium perenne (LOLPE) [7]. Moreover, the “percentage damage caused … SETFA” value was 3 (3=40-59%) with Setaria faberi (SETFA) [4] and 5 (5=80-100%) with Setaria faberi (SETFA) [8].
`CC#Cc1cc(C)c(C2C(=O)CC3(CC2=O)CN(S(=O)(=O)CC)C3)c(C)c1` [Compound 1.002]: the “percentage damage caused … AVEFA” value in the test with Avena fatua (AVEFA) [1] and with Avena fatua (AVEFA) [5] was 5 (5=80-100%) each time. The “percentage damage caused … ECHCG” value in test [2] and in test [6] was 5 (5=80-100%) throughout. The “percentage damage caused … LOLPE” value with Lolium perenne (LOLPE) [3] and in the test with Lolium perenne (LOLPE) [7] was 5 (5=80-100%) in each case. Also, the “percentage damage caused … SETFA” value in the test on Setaria faberi (SETFA) [4] and in the test on Setaria faberi (SETFA) [8] was 5 (5=80-100%) in each case.
Take `CC#Cc1cc(C)c(C2C(=O)CC3(CC2=O)CN(C(=O)C(C)(C)C)C3)c(C)c1` [Compound 1.010]: the “percentage damage caused … AVEFA” value with Avena fatua (AVEFA) [1] and with Avena fatua (AVEFA) [5] was 5 (5=80-100%) in each case. Besides, the “percentage damage caused … ECHCG” value in test [2] and in test [6] was 5 (5=80-100%) in each case. In addition, the “percentage damage caused … LOLPE” value in the test on Lolium perenne (LOLPE) [3] and with Lolium perenne (LOLPE) [7] was 5 (5=80-100%) in each case. Moreover, the “percentage damage caused … SETFA” value in the test with Setaria faberi (SETFA) [4] and in the test on Setaria faberi (SETFA) [8] was 5 (5=80-100%) in each case.
